Measured values from patent publication US20040137022A1, “Manganese compositions for treating skin vascular tissue and combating skin pallor” (SOCIETE L'OREAL S.A., priority 2000, published 2004).

Test system: endothelium-free isolated blood vessels
Conditions: concentration 10^−6 M; blood vessel rings contracted with noradrenalin 3×10^−7 M; 37° C.
Description: Activity of manganese (manganese gluconate, manganese chloride and manganese carbonate) in an ex vivo model of endothelium-free isolated blood vessels:
Blood vessel rings (or sections) were maintained in a 20 ml tank filled with survival fluid (Krebs Henseleit liquid) maintained at a temperature of 37° C. and oxygenated with a mixture of 95% oxygen and 5% CO2.
The variations in the tension of the blood vessel were then recorded with an initial preloading of several […].
The rings were contracted with noradrenalin at a concentration of 3×10^−7 M. On each preparation, the effect of the test products was evaluated at increasing and cumulative concentrations of from 3×10^−8 M to 10^−5 M.

Substance | % of relaxation
manganese carbonate [MnCO3] | 100%
manganese chloride [MnCl2] | 100%
manganese gluconate | 100%
